Data reported in ChEMBL document CHEMBL1134573, “Utilization of a peptide lead for the discovery of a novel PTP1B-binding motif” (J Med Chem, 2001).
Starred links: 1 amine or outer side, 2 acyl side, 3 side chain; linkers in the order of their positions; H or OH if unused. Non-standard residues stand in square brackets, D forms with d. Residues, ends and D or L forms follow the SMILES beside them. X1 = O=C(O)COc1ccc(C[C@H](N[*:1])C(=O)[*:2])cc1C(=O)O; F2Pmp = N[C@@H](Cc1ccc(C(F)(F)P(=O)(O)O)cc1)C(=O)O

The compounds below were run against T1, Tyrosine-protein phosphatase non-receptor type 1 (Homo sapiens, UniProt P18031) (assay: Inhibitory activity against human Protein-tyrosinephosphatase 1B (PTP1B)).
T1 sequence (P18031 whole entry): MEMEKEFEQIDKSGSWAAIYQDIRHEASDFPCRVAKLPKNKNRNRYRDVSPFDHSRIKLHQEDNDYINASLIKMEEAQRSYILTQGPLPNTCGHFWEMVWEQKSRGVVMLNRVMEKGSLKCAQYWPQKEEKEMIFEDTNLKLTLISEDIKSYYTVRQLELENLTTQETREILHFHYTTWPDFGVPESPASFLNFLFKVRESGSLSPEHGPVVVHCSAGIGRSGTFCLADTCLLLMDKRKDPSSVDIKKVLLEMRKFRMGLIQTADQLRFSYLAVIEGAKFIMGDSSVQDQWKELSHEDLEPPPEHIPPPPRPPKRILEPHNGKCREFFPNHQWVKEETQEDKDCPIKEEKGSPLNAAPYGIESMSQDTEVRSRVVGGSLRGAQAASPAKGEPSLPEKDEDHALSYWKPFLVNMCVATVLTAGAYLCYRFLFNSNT

For `COc1ccc2cc(C(=O)O)ccc2c1C(=O)O`, which IC50 is on record?
The IC50 was 20 mM.

For `O=S(=O)(O)c1ccc2c(S(=O)(=O)O)cc(S(=O)(=O)O)cc2c1`, which IC50 is on record?
Its IC50 is greater than 4 mM.

With `O=S(=O)(O)c1ccc2cc(S(=O)(=O)O)ccc2c1` as the compound, how does the IC50 read?
The IC50 was greater than 4 mM.

With `O=C(O)c1ccc2cc(OC(F)(F)C(=O)O)ccc2c1` as the compound, how does the IC50 read?
Its IC50 is 9.4 mM.

How did the IC50 turn out when `CS(=O)(=O)Nc1cccc2cc(S(=O)(=O)O)ccc12` was run?
Its IC50 is 29 mM.

Which Ki does the source give for `O=C(O)c1ccc2c(C(=O)O)cccc2c1` here?
Its Ki is 0.031 mM.

Which Ki does the source give for `O=C(O)COc1cc2ccc(C(=O)O)cc2cc1C(=O)O` here?
Its Ki is 0.25 mM.

Which IC50 does the source give for `O=S(=O)([O-])c1cccc2c(S(=O)(=O)[O-])cccc12.[Na+].[Na+]` here?
The IC50 was 28 mM.

How did the IC50 turn out when `NC(=O)[C@H](CCC(=O)O)NC(=O)c1ccc2c(C(=O)O)c(OCC(=O)O)ccc2c1` was run?
The IC50 was 3.8 mM.

Which Ki does the source give for `O=C(O)COc1ccc2cc(C(=O)O)ccc2c1C(=O)O` here?
Its Ki is 0.9 mM.

How did the IC50 turn out when `O=C(O)c1ccc2ccc(C(=O)O)cc2c1` was run?
Its IC50 is greater than 3.2 mM.

For `COC(=O)c1ccc2c(C(=O)O)c(OC)ccc2c1`, which IC50 is on record?
The IC50 was 2.8 mM.

`O=C(O)c1ccc2cc(C(=O)O)ccc2c1` was tested. Which IC50 did it give?
Its IC50 is greater than 4 mM.

Which Ki does the source give for `NC(=O)[C@@H](CCC(=O)O)NC(=O)c1ccc2cc(C(F)(F)P(=O)(O)O)ccc2c1` here?
Its Ki is 0.012 mM.

For `O=C(O)c1ccc2cc(C(F)(F)P(=O)(O)O)ccc2c1`, which Ki is on record?
Its Ki is 0.022 mM.

For `O=C(O)c1ccc2c(C(=O)O)c(O)ccc2c1`, which IC50 is on record?
Its IC50 is 12 mM.

With `O=C(O)COc1ccc2cc(C(=O)O)ccc2c1` as the compound, how does the IC50 read?
The IC50 was 9.4 mM.

Which Ki does the source give for `CC(=O)N[C@@H](CC(=O)O)C(=O)N[C@@H](C)C(=O)N[C@@H](CC(=O)O)C(=O)N[C@@H](CCC(=O)O)C(=O)N[C@@H](Cc1ccc(C(F)(F)P(=O)(O)O)cc1)C(=O)N[C@@H](CC(C)C)C(N)=O` (Ac-DADE[F2Pmp]L-NH2) here?
Its Ki is 0.0002 mM.

How did the Ki turn out when `CC(=O)N[C@@H](CC(=O)O)C(=O)N[C@@H](C)C(=O)N[C@@H](CC(=O)O)C(=O)N[C@@H](CCC(=O)O)C(=O)N[C@@H](Cc1ccc(OCC(=O)O)c(C(=O)O)c1)C(=O)N[C@@H](CC(C)C)C(N)=O` (Ac-DADE[X1]L-NH2) was run?
The Ki was 0.0036 mM.
